Data taken from US8586638B2, “Parakeratosis inhibitor and skin preparation for external use” (priority 2003, dated 2013).
Several values for one entry are separate records, joined by “and”; a condition that tells them apart may be missing. Equal values may be shown once. Where a SMILES comes first, the peptide text is derived from it.

Assays:
[1] = test system: pores on the cheek of healthy male subjects; test: Pore-shrinking effect on human skin by N-ethylglycine: pore surface area by replica analysis; format: in vivo; conditions: 3 weight % N-ethylglycine side; control 92%; area 3.34 mm by 3.34 mm; FIG. 3
Excerpt: (§1) In the pore-shrinking effect test on human skin as described in the embodiment 5, the application of N-ethylglycine was further studied about the amelioration of parakeratosis by measuring the number of nuclear cell of skin surface stratum corneum, obtained by means of a tape. Replica was used to actually measure the pore size within the area of 3.34 mm by 3.34 mm to evaluate the pore-shrinking effect.
(§2) More specifically, the skin surface stratum corneum was sampled by means of carton tape (Nichiban, Co. Ltd.) only after the application of sample, Hoechst 33342 solution dissolved in PBS to 0.1 mg/ml was then added, and after the sample was placed in a dark place for 20 minutes, the number of nuclear cells within the area of 12 mm by 34 mm by using a fluorescent microscope. For the replicas made by using silflo (Flexico, Co. Ltd.) was measured before and after the application to capture three-dimensional surface form within the same area (3.34 mm by 3.34 mm) with a confocal microscope (HD100D, Lasertech) to measure and compare the size of pores (surface area value).

[2] = test system: skin roughness caused by oleic acid on the back of hairless mice; test: Inhibitory effect on skin roughness by the application of oleic acid (TEWL value); format: in vivo, hairless mice (HR-1); design: ΔTEWL: unit not given here; conditions: for decrease of delta-TEWL value as compared to the control solution (conclusion from Table 6): hairless mice, oleic acid, seventh embodiment; for ΔTEWL: sample 3 weight %, after 10 weight % oleic acid, 3 days, four mice per group, larger = severer roughness, control 12.0
Method: To study the inhibitory effect on the skin roughness by the application of oleic acid by the glycine derivatives and the salts thereof as well as the aminosulfuric acid derivatives and the salts thereof in accordance with the invention 2, the […] (TEWL value) before and after the application was measured to compare the difference therebetween with the value of control (control solution) in order to determine the effect. The preparation of samples and the application procedure were in accordance with the embodiment 4. The TEWL value was measured by means of TEWA meter TM210 (Courage+Khazaka Inc.).
100 microliters of 10 weight % oleic acid (solvent: ethanol) was applied to the back of hairless mice (HR-1, four in each group). Thereafter, 100 microliters of sample solutions (glycine derivatives and the salts thereof as well as the aminosulfuric acid derivatives and the salts thereof) in accordance with the invention 2 were applied at each time. This procedure was repeated for 3 days. The day after the application, TEWL value of the back of mice was measured and the values were averaged. The larger delta-TEWL value indicates severer aggravation of skin roughness.

[3] = test system: pores on the cheek of healthy male subjects; test: Effect of shrinking human pores: replica evaluation of cheek pores; format: in vivo; conditions: for Replica Evaluation (mean of n = 5), difference of pore size score before/after application: twice a day for a month, cheek; for effect of pore-shrinking (conclusion from Table 5): fifth embodiment
Method: An experiment of application of sample twice a day for a month on the cheek of healthy male subjects, was conducted with each group consisting of 5 individuals. 3 weight % solution of the glycine derivatives in accordance with the invention 1 (including 15 weight % of ethanol) was prepared. pH was regulated to the range between 7.0 and 7.5, by using hydrochloric acid and/or sodium hydroxide. Control was 15 weight % ethanol solution. Said 3 weight % solution was applied to one side and said control solution was applied to the other side.
Replicas were prepared prior to and after the application to observe the change of form of pores in the same spot under a three-dimensional laser scanning microscope. The size of pores was evaluated visually 13 steps from 1 to 13 (larger number indicates larger pore size), and the difference between the resulted evaluations before/after the application experiment was then calculated to study the effectiveness of each specimen.
An experiment of application of sample twice a day for a month on the cheek of healthy male subjects, was conducted with each group consisting of 5 individuals. 3 weight % solution of the glycine derivatives and the salts thereof as well as the aminosulfuric acid derivatives and the salts thereof in accordance with the invention 2 (including 15 weight % of ethanol), 2 weight % solution of ACES (including 15 weight % of ethanol), 3 weight % solution of CAPS (including 15 weight % of ethanol), and 3 weight % solution of CAPSO (including 15 weight % of ethanol) were prepared. pH was regulated to the range between 7.0 and 7.5, by using hydrochloric acid and/or sodium hydroxide. 15 weight % ethanol solution was used as control. Said sample solutions was applied to one side, and said control solution was applied to the other side.

[4] = test system: parakeratosis and skin roughness caused by oleic acid on the back of hairless mice; test: Parakeratosis inhibition effect test: oleic acid applied to the back of hairless mice, visual skin roughness and parakeratosis level; format: in vivo, hairless mice (HR-1); design: key to Evaluation Visual (mean of 4 mice), skin roughness: 0.0 = no roughness, 2.0 = control application; 0.25 steps; conditions: for Evaluation Parakeratosis (mean of 4 mice): range 1.0 to 3.0, higher = severer, control 2.0; for Evaluation Visual (mean of 4 mice), skin roughness: score 0.0 no roughness, 2.0 control; for effect of inhibiting parakeratosis (conclusion from Table 4): fourth embodiment
Method: A 3 weight % water solution (including 30 weight % ethanol) was prepared as the evaluation specimen of the glycine derivatives in accordance with the invention 1. The pH was regulated to the range between 7.0 to 7.5, by using hydrochloric acid and sodium hydroxide. When the solubility was low, the solution was adjusted accordingly.
100 microliters of 10 weight % oleic acid (solvent: ethanol) was applied to the back of hairless mice (HR-1, Hoshino laboratory animals). Thereafter, 100 microliters of sample solution was applied (glycine derivatives in accordance with said invention 1) at each time. This procedure was repeated for 3 days. The day after the application, the skin condition of the backs was observed by using a CCD camera to evaluate the skin roughness (stratified ablation of the skin surface stratum corneum and red spots). The skin condition was evaluated visually, with scoring the skin condition of control application to 2.0 and the skin condition of no roughness to 0.0, in a 0.25 point step in response to the skin condition. At the same time, the skin surface stratum corneum of the back of hairless mice was peeled off by using a tape for staining the nucleus with haematoxylin to observe the degrees of parakeratosis (parakeratosis level) and evaluate in 0.25 step in the range from 1.0 to 3.0. The higher evaluation points indicates the larger number of parakeratotic corneocytes count, i.e., severer parakeratosis.
The samples to be evaluated of the glycine derivatives and the salts thereof as well as the aminosulfuric acid derivatives and the salts thereof in accordance with the invention 2 were prepared mainly 3 weight % solution (including 30 weight % ethanol, excluding Hydantoic acid and ACES which include 20 weight % ethanol). pH was regulated by using hydrochloric acid or sodium hydroxide to be 7.0 to 7.5. When the solubility was low, then the solution was prepared accordingly.
100 microliters of 10 weight % oleic acid (solvent: ethanol) was applied to the back of Hairless mice (HR-1, Hoshino laboratory animals) Thereafter, 100 microliters of sample solution (glycine derivatives in accordance with the invention 2) was applied thereon at each time. This procedure was repeated for 3 days. The day after the application, the skin condition of the backs was observed by using a CCD camera to evaluate the skin roughness (stratified ablation of the skin surface stratum corneum and red spots). The skin condition was evaluated visually, with scoring the skin condition of control application to 2.0 and the skin condition of no roughness to 0.0, in a 0.25 point step in response to the skin condition. At the same time, the skin surface stratum corneum of the back of hairless mice was peeled off by using a tape for staining the nucleus with haematoxylin to observe the degrees of parakeratosis and evaluate in 0.25 step in the range from 1.0 to 3.0. The higher evaluation points indicates the larger number of parakeratotic corneocytes count, i.e., severer parakeratosis.

[5] = test system: skin surface stratum corneum of human cheek; test: Parakeratosis inhibition effect on human skin by N-ethylglycine: number of nuclear cells of skin surface stratum corneum; format: in vivo; conditions: 3 weight % N-ethylglycine side against control side (15 weight % ethanol); area 12 mm by 34 mm; FIG. 2
Excerpt: as §1, §2

[6] = test system: pores (conical portion) on the cheek of healthy adult males; test: Effect of shrinking human pores by glycylglycine: conical portion surface area from cheek replica; format: in vivo; conditions: glycylglycine applied side compared with ethanol applied side
[7] = test system: pores (conical portion) on the cheek of healthy adult males; test: as above; format: in vivo
Method: Since we obtained a good result from glycylglycine in the embodiment 2, we conducted an application experiment of glycylglycine three times a day (0.1 milliliter each) on the cheek of 21 healthy adult males (age of 20s to 50s, average 40.4 years old) for a period of one month. 1.6% (w/w) glycylglycine solution (pH regulated to 7.0) including 15% (w/w) ethanol, and 15% (w/w) ethanol solution (control) was prepared, for applying the same to each one side cheek.
By obtaining a cheek replica (Silflo) before and after the continuous application, the surface area of conical portion was measured by a three-dimensional analysis system (Okuri et al., Japan Society of Dermatology Annual Meeting Program/Abstract, 2004, 104, pp. 601) by means of wide view confocal microscope HD100D (lasertech).
For the surface area recognized as pore portion within the replica measuring area of 3.34 mm by 3.34 mm, the conical portion surface area (mm2) and the ratio thereof before and after the application is shown in Table 3. From Table 3, The ratio among the panel that the surface area of glycylglycine applied side was decreased more than 10% when compared to the control application side (glycylglycine side was shrunk), the panel that the variation was within 10% and no noticeable change observed (no change), and the panel that the control application side was decreased more than 10% (other side was shrunk) was 13:5:3.
When averaging the surface area ratio before and after the application, the side of control solvent solution was 102%, while the side of glycylglycine was reduced to 89%. By evaluating this surface area ratio with t-analysis, we obtained p=0.019, indicating significant shrinkage of pore area in the glycylglycine applied side (see FIG. 1).

[8] = Table 5, 3.0 weight % solution (15 weight % ethanol), control 0.3
[9] = Table 4, sample 3 weight % in aqueous 30 weight % ethanol (hydantoic acid: 20 weight % ethanol)
[10] = sample 3 weight % in aqueous 30 weight % ethanol, after 10 weight % oleic acid, 3 days

Row | Compound | surface area of pores, average as compared to pre-application status [1] [%] | decrease of delta-TEWL value as compared to the control solution (conclusion from Table 6) [2] | ΔTEWL [2] | Replica Evaluation (mean of n = 5), difference of pore size score before/after application [3, 8] | effect of pore-shrinking (conclusion from Table 5) ([3]; human cheek) | Evaluation Parakeratosis (mean of 4 mice) [4, 9] | Evaluation Visual (mean of 4 mice), skin roughness [4, 9] | effect of inhibiting parakeratosis (conclusion from Table 4) ([4]; hairless mice, oleic acid) | number of nuclear cells of skin surface stratum corneum [5] | photographic evaluation of conspicuous pores [6] | Replica Evaluation (mean of n = 5), difference of pore size score before/after application ([3]; 3 weight % solution (15 weight % ethanol), 13 steps, larger = larger pore, control 0.2) | pore-shrinking effect (conclusion from Table 2) ([3]; human cheek, second embodiment) | average surface area ratio before and after the application ([7]; glycylglycine side, control solvent side 102%, p=0.019) [%] | conical portion surface area after application ([7]; individual panels #1-21, 1.6% (w/w) glycylglycine, 15% ethanol, three times a day, one month, area 3.34 mm by 3.34 mm) | conical portion surface area ratio after/before ([7]; individual panels #1-21, 1.6% (w/w) glycylglycine, three times a day, one month) | conical portion surface area ratio after/before, mean ([7]; mean of 21 panels (S.D. 0.2597), 1.6% (w/w) glycylglycine, control mean 1.017) | effect of inhibiting parakeratosis (conclusion from Table 1) ([4]; hairless mice, oleic acid, first embodiment) | Evaluation Parakeratosis (mean of 4 mice) [4, 10] | Evaluation Visual (mean of 4 mice), skin roughness [4, 10]
1 | CCNCC(=O)O [N-ethylglycine] | 73 | significant decrease of delta-TEWL value | 9.0 | −1.4 | demonstrated the effect of pore-shrinking | 1.2 | 1.3 | have the effect of inhibiting parakeratosis | fewer number of nuclear cells | – | – | – | – | – | – | – | – | – | –
2 | NCC(=O)NCC(=O)O [glycylglycine] (H-Gly-Gly-OH) | – | – | – | – | – | – | – | – | – | ameliorated | −1.0 | pore-shrinking effect was observed | 89 | 1.2057 mm^2 and 1.3727 mm^2 and 1.5166 mm^2 and 1.4427 mm^2 and 1.2368 mm^2 and 0.6078 mm^2 and 0.3675 mm^2 and 0.4880 mm^2 and 1.1250 mm^2 and 0.5977 mm^2 and 1.3739 mm^2 and 0.2691 mm^2 and 1.2348 mm^2 and 1.2053 mm^2 and 1.0498 mm^2 and 0.3669 mm^2 and 0.6778 mm^2 and 1.0541 mm^2 and 0.5801 mm^2 and 0.6728 mm^2 and 1.3879 mm^2 | 0.8948 and 0.9818 and 1.0512 and 1.0627 and 1.0535 and 0.7494 and 0.5279 and 0.7405 and 0.7878 and 0.6357 and 0.8594 and 0.4111 and 1.3932 and 0.8940 and 1.2831 and 0.5594 and 0.7676 and 0.8700 and 1.2931 and 0.7612 and 1.0131 | 0.8853 | have the effect of inhibiting parakeratosis | 1.2 | 1.2
3 | O=C(O)CNc1ccccc1 [N-phenylglycine] | – | significant decrease of delta-TEWL value | 7.9 | −1.0 | demonstrated the effect of pore-shrinking | 1.2 | 1.3 | have the effect of inhibiting parakeratosis | – | – | – | – | – | – | – | – | – | – | –
4 | O=S(=O)(O)CC(O)CNC1CCCCC1 (stereo not drawn) [CAPSO, 3-(cyclohexyl-amino)-2-hydroxy-propane-sulfonic acid] | – | significant decrease of delta-TEWL value | 7.9 | −1.6 | demonstrated the effect of pore-shrinking | 1.1 | 1.3 | have the effect of inhibiting parakeratosis | – | – | – | – | – | – | – | – | – | – | –
